For experiment [1], the system named is HCMV engineered virus RC256. Description: microbe, parasite or virus in culture. The experiment is classed as cell-based, human cytomegalovirus. The note with it: Human betaherpesvirus 5, Fibroblast, read-out: Antiviral Activity RC256, first value (EC50).
Experiment [2] has as its target T1, Human leukocyte elastase (HLE) (Homo sapiens, UniProt P08246).
T1 construct: gift of R. Senior, Washington University
T1 sequence (P08246 30-267): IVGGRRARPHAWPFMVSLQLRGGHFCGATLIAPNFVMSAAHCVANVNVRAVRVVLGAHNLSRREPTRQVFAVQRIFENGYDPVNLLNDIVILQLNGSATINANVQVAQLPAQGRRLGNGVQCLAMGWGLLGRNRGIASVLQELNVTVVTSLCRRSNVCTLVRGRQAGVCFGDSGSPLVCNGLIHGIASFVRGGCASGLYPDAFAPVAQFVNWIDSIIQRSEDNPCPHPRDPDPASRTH
Briefly: Human leukocyte elastase assay. It is filed as biochemical. Here is the method: Human leukocyte elastase (HLE) (gift of R. Senior, Washington University) was dissolved in saline at 1 mg/ml and further diluted 1/20 in assay buffer (0.2 M Tris, pH 8.0) before use. 10 μl of test compound in DMSO (or DMSO alone), 100 μl of assay buffer and 50 μl of enzyme were added to 96 well plates, mixed and pre-incubated for 30 minutes at ambient temperature. Reaction was initiated by addition of 40 μl of 2.5 mM methoxysuccinyl-Ala-Ala-Pro-Val-p-nitroanilide (Sigma; 25 mM in DMSO diluted 1/10 in assay buffer before use). The increase in absorbance at 405 nm was monitored for 10 minutes with a Biotek EL340 plate reader.

Setting [3] is: @ 100 (concentration unit not given).
The mark [4] stands for this setting: @ 10 (concentration unit not given).
Setting [5] is: @ 1 (concentration unit not given).

Broadly, the EC50 is the concentration giving half of the maximal effect. `Cc1c(NC(=O)OC(C)(C)C)ccc2nc(N[C@@H](C)C(=O)OC(C)(C)C)oc(=O)c12` [Example 6, N-[6-[[(1,1-Dimethylethoxy]carbonyl]amino]-5-methyl-4-oxo-4H-3,1-benzoxazin-2-yl]-L-alanine, 1,1-dimethylethyl Ester]: the EC50 in experiment [1] was greater than 100 µM. The “HLE, % @ concentration” value in experiment [2] (setting [3]) was found to be 29% @ 100.

On to `COC(=O)[C@H](Cc1ccc(OC)cc1)Nc1nc2ccc(NC(=O)OC(C)(C)C)c(C)c2c(=O)o1` [Example 6c, N-[6-[[(1,1-Dimethylethoxy)carbonyl]amino]-5-methyl-4-oxo-4H-3,1-benzoxazin-2-yl]-O-methyl-L-tyrosine, methyl ester], for which, in experiment [1], the concentration giving a half-maximal response (EC50) stood at 59 µM. For the same compound, the “HLE, % @ concentration” value in experiment [2] (setting [3]) came out at 29% @ 100.

Turning to `COc1ccc(C[C@H](Nc2nc3ccc(NC(=O)OC(C)(C)C)c(C)c3c(=O)o2)C(=O)N(C)Cc2ccccc2)cc1` [Example 6dd, 1,1-Dimethylethyl[2-[[1S-[(4-methoxyphenyl)methyl]-2-[methyl(phenylmethyl)amino]-2-oxoethyl]amino]-5-methyl-4-oxo-4H-3,1-benzoxazin-6-yl]carbamate], in experiment [1], the EC50 was 18 µM. Besides, in experiment [2] (setting [4]), the “HLE, % @ concentration” value was 42% @ 10.

On to `Cc1c(NC(=O)OC(C)(C)C)ccc2nc(N[C@@H](Cc3ccc(OCCN4CCCC4)cc3)C(=O)N(C)Cc3ccccc3)oc(=O)c12` [Example 6ff, 1,1-Dimethylethyl[5-methyl-2-[[2-[methyl(phenylmethyl)amino]-2-oxo-1S-[[4-[2-(1-pyrrolidinyl)ethoxy]phenyl]methyl]ethyl]amino]-4-oxo-4H-3,1-benzoxazin-6-yl]carbamate], for which the EC50 in experiment [1] worked out at 50 µM. The “HLE, % @ concentration” value in experiment [2] (setting [3]) worked out at 75% @ 100.

Regarding `Cc1c(NC(=O)OC(C)(C)C)ccc2nc(N[C@@H](C)c3ccccc3)oc(=O)c12` [Example 6m, 6-[[(1,1-Dimethylethoxy)carbonyl]amino]-5-methyl-2-[[(1S)-phenylethyl]amino]-4H-3,1-benzoxazin-4-one], in experiment [1], the EC50 was 50 µM. For the same compound, in experiment [2] (setting [3]), the “HLE, % @ concentration” value is reported as 82% @ 100.

With `COC(=O)[C@H](CCS(C)(=O)=O)Nc1nc2ccc(NC(=O)OC(C)(C)C)c(C)c2c(=O)o1` [Example 6u, N-[6-[[(1,1-Dimethylethoxy)carbonyl]amino]-5-methyl-4-oxo-4H-3,1-benzoxazin-2-yl]-L-methionine sulfone, methyl ester], the concentration giving a half-maximal response (EC50) in experiment [1] came out at 100 µM. In addition, in experiment [2] (setting [3]), the “HLE, % @ concentration” value is reported as 29% @ 100.

With `COC(=O)C1(Nc2nc3ccc(NC(=O)OC(C)(C)C)c(C)c3c(=O)o2)CC1` [Example 6x, N-[6-[[(1,1-Dimethylethoxy)carbonyl]amino]-5-methyl-4-oxo-4H-3,1-benzoxazin-2-yl]-1-cyclopropanecarboxylic acid, methyl ester], in experiment [1], the EC50 was greater than 100 µM. The “HLE, % @ concentration” value in experiment [2] (setting [4]) is reported as 25% @ 10.

`Cc1c(NC(=O)OC(C)(C)C)ccc2nc(N[C@H]3CCN(c4ccc(C#N)cc4)C3=O)oc(=O)c12` [Example 6y]: the EC50 in experiment [1] stood at 67 µM. For the same compound, the “HLE, % @ concentration” value in experiment [2] (setting [4]) was 25% @ 10.

For `COc1ccc(C[C@H](Nc2nc3ccc(CNC(=O)OC(C)(C)C)c(C)c3c(=O)o2)C(=O)N2CCCC2)cc1` [Example 7g, 1,1-Dimethylethyl[[2-[[1S-[(4-methoxyphenyl)methyl]-2-oxo-2-(1-pyrrolidinyl)ethyl]amino]-5-methyl-4-oxo-4H-3,1-benzoxazin-6-yl]methyl]carbamate], in experiment [1], the concentration for a half-maximal effect (EC50) is 20 µM. Moreover, in experiment [2] (setting [4]), the “HLE, % @ concentration” value is listed as 39% @ 10.

In the case of `Cc1c(CNC(=O)OC(C)(C)C)ccc2nc(N[C@@H](Cc3ccccc3)C(=O)N(C)Cc3ccccc3)oc(=O)c12` [Example 7j, 1,1-Dimethylethyl[[5-methyl-2-[[2-[methyl(phenylmethyl)amino]-2-oxo-1S-(phenylmethyl)ethyl]amino]-4-oxo-4H-3,1-benzoxazin-6-yl]methyl]carbamate], the EC50 in experiment [1] was 14 µM. In addition, the “HLE, % @ concentration” value in experiment [2] (setting [4]) was found to be 31% @ 10.

In the case of `Cc1c(CNC(=O)OC(C)(C)C)ccc2nc(N[C@@H](Cc3ccccc3)C(=O)N(C)c3ccccc3)oc(=O)c12` [Example 7m, 1,1-Dimethylethyl([5-methyl-2-[[2-(methylphenylamino)-2-oxo-1S-(phenylmethyl)ethyl]amino]-5-methyl-4-oxo-4H-3,1-benzoxazin-6-yl]methyl]carbamate], the EC50 in experiment [1] stood at 5.2 µM. The “HLE, % @ concentration” value in experiment [2] (setting [4]) was 55% @ 10.

As to `CCN(C(=O)[C@H](Cc1ccccc1)Nc1nc2ccc(CNC(=O)OC(C)(C)C)c(C)c2c(=O)o1)c1ccccc1` [Example 7n], the concentration giving a half-maximal response (EC50) in experiment [1] is 16 µM. In addition, the “HLE, % @ concentration” value in experiment [2] (setting [4]) stood at 16% @ 10.

For `CCN(Cc1ccccc1)C(=O)[C@H](Cc1ccc(OC)cc1)Nc1nc2ccc(CNC(=O)OC(C)(C)C)c(C)c2c(=O)o1` [Example 7o, 1,1-Dimethylethyl[[2-[[2-[ethyl(phenylmethyl)amino]-1S-[(4-methoxyphenyl)methyl]-2-oxoethyl]amino]-5-methyl-4-oxo-4H-3,1-benzoxazin-6-yl]methyl]carbamate], the 50% effective concentration (EC50) in experiment [1] was 24 µM. In experiment [2] (@ 12.5 (concentration unit not given)), the “HLE, % @ concentration” value is recorded as 42% @ 12.5.

For the compound `Cc1c(CNC(=O)OC(C)(C)C)ccc2nc(N[C@@H](Cc3ccc(Cl)cc3)C(=O)N(C)Cc3ccccc3)oc(=O)c12` [Example 7p, 1,1-Dimethylethyl[[2-[[1S-[(4-chlorophenyl)methyl]-2-[methyl(phenylmethyl)amino]-2-oxoethyl]amino]-5-methyl-4-oxo-4H-3,1-benzoxazin-6-yl]methyl]carbamate], in experiment [1], the 50% effective concentration (EC50) turned out to be 20 µM. Further, in experiment [2] (setting [5]), the “HLE, % @ concentration” value stood at 42% @ 1.

For the compound `COc1ccc(C[C@H](Nc2nc3ccc(CNC(=O)OC(C)(C)C)c(C)c3c(=O)o2)C(=O)N(C)CCc2ccccc2)cc1` [Example 7q, 1,1-Dimethylethyl[[2-[[1S-[(4-methoxyphenyl)methyl]-2-[methyl(2-phenylethyl)amino]-2-oxoethyl]amino]-5-methyl-4-oxo-4H-3,1-benzoxazin-6-yl]methyl]carbamate], the EC50 in experiment [1] is 22 µM. For the same compound, the “HLE, % @ concentration” value in experiment [2] (setting [5]) was 39% @ 1.

In the case of `COc1ccc(C[C@H](Nc2nc3ccc(CNC(=O)OC(C)(C)C)c(C)c3c(=O)o2)C(=O)N(C)c2ccccc2)cc1` [Example 7t, 1,1-Dimethylethyl[[2-[[1S-[(4-methoxyphenyl)methyl]-2-(methylphenylamino)-2-oxoethyl]amino]-5-methyl-4-oxo-4H-3,1-benzoxazin-6-yl]methyl]carbamate], the 50% effective concentration (EC50) in experiment [1] was determined as 18 µM. Further, in experiment [2] (setting [4]), the “HLE, % @ concentration” value was 20% @ 10.

As to `Cc1c(CNC(=O)OC2CCCC2)ccc2nc(N[C@@H](Cc3ccccc3)C(=O)N(C)Cc3ccccc3)oc(=O)c12` [Example 18f, Cyclopentyl[[5-methyl-2-[[2-[methyl(phenylmethyl)amino]-2-oxo-1S-(phenylmethyl)ethyl]amino]-4-oxo-4H-3,1-benzoxazin-6-yl]methyl]carbamate], in experiment [2] (setting [5]), the “HLE, % @ concentration” value is 59% @ 1.

Turning to `Cc1c(CNC(=O)OCCN(C)C)ccc2nc(N[C@@H](Cc3ccccc3)C(=O)N(C)Cc3ccccc3)oc(=O)c12` [Example 18g, 2-(Dimethylamino)ethyl[[5-methyl-2-[[2-[methyl(phenylmethyl)amino]-2-oxo-1S-(phenylmethyl)ethyl]amino]-4-oxo-4H-3,1-benzoxazin-6-yl]methyl]carbamate], the EC50 in experiment [1] stood at 13 µM.

Consider `Cc1c(CNC(=O)OCCN2CCOCC2)ccc2nc(N[C@@H](Cc3ccccc3)C(=O)N(C)Cc3ccccc3)oc(=O)c12` [Example 18h], for which the EC50 in experiment [1] was 11 µM.
